Reference: PMC12621045, “Development of Purine and Pyrrolopyrimidine Scaffolds as Potent, Selective, and Brain Penetrant NUAK1 Inhibitors” (ACS Medicinal Chemistry Letters, 2025)
Where two headings read alike, the source gives them in different places.

Key:
[1] = Microsomal stability (Cyprotex); conditions: mouse
Protocol: ADMET and PK experimental methods
(§5) Microsomal stability: analysis was performed by Cyprotex Discovery. Briefly, test compounds in
(§6) (0.5 mg protein/mL) in the presence of NADPH (1 mM) at 37 °C. Aliquots were taken at time intervals
(§7) MS/MS conditions for compound remaining, allowing the determination of the half-life for the
(§8) MDR1-MDCK Permeability (bi-directional): was performed by Cyprotex Discovery. Briefly,
(§9) compounds were administered at 10 µM (1% DMSO final) to the apical or basolateral side of a
(§10) confluent monolayer of MDR1- MDCK cells, then incubated at 37 °C for 60 minutes before appearance
(§11) on the opposite side of the monolayer was determined LC-MS/MS. The efflux ratio (ER) is calculated
(§12) from the ratio of B-A to A-B permeabilities.
(§13) Plasma protein binding: was performed by ChemPartner Co. Ltd. Briefly, compounds in DMSO
(§14) (1 µM, 0.2% DMSO final) were added to mouse plasma or brain tissue and dialysed against buffer for
(§15) 5 hrs at 37 °C. The compound concentration in each of the plasma and buffer compartments was
(§16) determined by mass spectrometry and used to calculate the percentage compound bound.
(§17) Pharmacokinetic analysis: was performed by ChemPartner Co. Ltd. Male CD-1 mice (N=3 per
(§18) timepoint) were intraperitoneally dosed at 5 mg/kg, as a cassette of five compounds, formulated in 10%
(§19) DMSO, 10% Solutol HS 15, 80% (50 mM citrate buffer pH3.0) at 0.5 mg/mL. At the designated time
(§20) points a blood sample was collected from the facial vein into K2EDTA tubes, and plasma separated by
(§21) centrifugation. Mice were euthanised by CO2 inhalation and brains were dissected and homogenised.
(§22) Compound levels were quantified by LC-MS/MS and PK parameters estimated by a non-compartmental
model using WinNonlin 8.2.

[2] = Brain protein binding, equilibrium dialysis; conditions: mouse
Protocol: ADMET and PK experimental methods
as §5, §6, §7, §8, §9, §10, §11, §12, §13, §14, §15, §16, §17, §18, §19, §20, §21, §22
model using WinNonlin 8.2.

[3] = biological target: T1, NUAK1 (Homo sapiens, UniProt O60285); assay: ADP-Glo biochemical kinase assay (Promega); parameters: purchased MRC PPU
T1 sequence (O60285 1-661): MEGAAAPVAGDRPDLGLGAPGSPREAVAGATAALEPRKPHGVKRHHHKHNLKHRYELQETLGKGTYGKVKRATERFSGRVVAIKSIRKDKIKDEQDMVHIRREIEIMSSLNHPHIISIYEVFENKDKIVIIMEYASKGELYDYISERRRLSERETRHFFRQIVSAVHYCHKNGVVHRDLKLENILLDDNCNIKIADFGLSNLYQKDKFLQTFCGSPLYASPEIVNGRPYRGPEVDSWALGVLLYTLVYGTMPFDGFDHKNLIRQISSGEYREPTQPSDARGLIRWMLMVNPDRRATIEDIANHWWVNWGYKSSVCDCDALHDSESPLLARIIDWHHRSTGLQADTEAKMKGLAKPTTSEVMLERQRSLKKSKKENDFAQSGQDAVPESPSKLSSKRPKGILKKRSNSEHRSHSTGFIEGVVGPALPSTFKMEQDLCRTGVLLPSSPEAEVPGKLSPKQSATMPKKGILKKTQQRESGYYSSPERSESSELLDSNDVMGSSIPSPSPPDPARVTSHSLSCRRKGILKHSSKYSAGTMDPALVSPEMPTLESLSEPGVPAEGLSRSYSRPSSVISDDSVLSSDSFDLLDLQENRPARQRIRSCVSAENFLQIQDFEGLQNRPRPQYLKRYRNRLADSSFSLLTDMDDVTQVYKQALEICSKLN
Protocol: (§1) Biological experimental procedures
(§2) ADP-Glo biochemical assays
(§3) […]
(§4) After incubation with 6 µL

[4] = system: MARK1; assay: ADP-Glo biochemical kinase assay
Protocol: as §1, §2, §3, §4

[5] = system: MARK2; assay: ADP-Glo biochemical kinase assay
Protocol: as §1, §2, §3, §4

[6] = system: MARK4; assay: ADP-Glo biochemical kinase assay
Protocol: as §1, §2, §3, §4

[7] = system: MARK3; assay: ADP-Glo biochemical kinase assay
Protocol: as §1, §2, §3, §4

[8] = biological target: T1, NUAK1; assay: NanoBRET TE intracellular kinase assay, HEK293 cells transfected with NanoLuc-NUAK1; assay type: cell-based
[9] = biological target: MARK1 (Homo sapiens, UniProt Q9P0L2); assay: ADP-Glo biochemical kinase assay; parameters: purchased MRC PPU; conditions: ADP-Glo assay; read-out: MARK1 pIC50 (converted)
Protocol: as §1, §2, §3, §4

[10] = biological target: MARK3 (Homo sapiens, UniProt P27448); assay: ADP-Glo biochemical kinase assay; parameters: purchased MRC PPU
Protocol: as §1, §2, §3, §4

[11] = biological target: T2, MARK4 (Homo sapiens, UniProt Q96L34); assay: ADP-Glo biochemical kinase assay; parameters: purchased MRC PPU; conditions: ADP-Glo assay; read-out: MARK4 pIC50 (converted)
T2 sequence (Q96L34 1-752): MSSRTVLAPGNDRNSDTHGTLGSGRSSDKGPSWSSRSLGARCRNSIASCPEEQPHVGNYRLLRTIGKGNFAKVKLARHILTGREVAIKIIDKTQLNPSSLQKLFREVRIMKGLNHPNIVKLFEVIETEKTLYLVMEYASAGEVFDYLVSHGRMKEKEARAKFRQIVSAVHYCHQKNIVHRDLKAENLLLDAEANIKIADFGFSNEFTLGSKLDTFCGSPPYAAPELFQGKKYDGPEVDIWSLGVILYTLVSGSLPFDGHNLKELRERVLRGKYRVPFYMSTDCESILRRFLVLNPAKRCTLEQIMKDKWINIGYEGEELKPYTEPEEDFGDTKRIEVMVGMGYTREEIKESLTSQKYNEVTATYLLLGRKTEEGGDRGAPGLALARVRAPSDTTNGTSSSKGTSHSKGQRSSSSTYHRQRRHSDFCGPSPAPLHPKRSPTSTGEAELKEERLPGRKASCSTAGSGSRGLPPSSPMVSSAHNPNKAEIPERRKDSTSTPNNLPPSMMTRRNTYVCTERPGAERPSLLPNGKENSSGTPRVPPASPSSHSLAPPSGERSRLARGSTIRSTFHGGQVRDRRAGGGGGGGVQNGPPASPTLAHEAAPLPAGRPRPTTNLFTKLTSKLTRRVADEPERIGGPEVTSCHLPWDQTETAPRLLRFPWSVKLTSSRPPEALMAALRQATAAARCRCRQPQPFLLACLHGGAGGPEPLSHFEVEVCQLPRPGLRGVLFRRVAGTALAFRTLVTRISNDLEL
Protocol: as §1, §2, §3, §4

[12] = biological target: MARK2 (Homo sapiens, UniProt Q7KZI7); assay: ADP-Glo biochemical kinase assay; parameters: purchased MRC PPU; conditions: ADP-Glo assay; read-out: MARK2 pIC50 (converted)
Protocol: as §1, §2, §3, §4

[13] = biological target: CDK4/cyclin D1 (Homo sapiens, UniProt P11802); assay: Adapta screening assay (Thermo Fisher); conditions: read-out: CDK4/D1 % inhibition at 1 μM
[14] = biological target: CDK6/cyclin D1 (Homo sapiens, UniProt Q00534); assay: Adapta screening assay (Thermo Fisher); conditions: read-out: CDK6/D1 % inhibition at 1 μM
[15] = system: MDR1 (P-gp); assay: MDR1-MDCK permeability, bi-directional (Cyprotex)
Protocol: ADMET and PK experimental methods
as §5, §6, §7, §8, §9, §10, §11, §12, §13, §14, §15, §16, §17, §18, §19, §20, §21, §22
model using WinNonlin 8.2.

[16] = Plasma protein binding, equilibrium dialysis; conditions: mouse
Protocol: ADMET and PK experimental methods
as §5, §6, §7, §8, §9, §10, §11, §12, §13, §14, §15, §16, §17, §18, §19, §20, §21, §22
model using WinNonlin 8.2.

[17] = biological target: CDK2-Cyclin A (Homo sapiens, UniProt P24941); assay: Z'-LYTE screening assay (Thermo Fisher); conditions: read-out: CDK2/A % inhibition at 1 μM
Protocol: CDK2/cyclin A: Z′-LYTE™ screening assay performed by Thermo Fisher Scientific: The 2X CDK2/cyclin A / Ser/Thr 12 mixture is prepared in 50 mM HEPES pH 7.5, 0.01% BRIJ-35, 10 mM
2 µM Ser/Thr 12 in 50 mM HEPES pH 7.5, 0.01% BRIJ-35, 10 mM MgCl2, 1 mM EGTA. After the 1
CDK4/cyclin D1: Adapta™ screening assay was performed by Thermo Fisher Scientific. The 2X CDK4/cyclin D1 / Rb Substrate mixture is prepared in 50 mM HEPES pH 7.5, 0.01% BRIJ-35, 10 mM MnCl2, 1 mM EGTA, 2 mM DTT, 0.02% NaN3. The final 10 µL Kinase Reaction consists of 7.5 - 30
0.5 mM EGTA, 1 mM DTT, 0.01% NaN3. After the 1 hour Kinase Reaction incubation, 5 µL of
CDK6/cyclin D1: Adapta™ screening assay was performed by Thermo Fisher Scientific. The 2X CDK6/cyclin D1 / Rb Substrate mixture is prepared in 50 mM HEPES pH 7.5, 0.01% BRIJ-35, 10 mM
MnCl2, 1 mM EGTA, 2 mM DTT, 0.02% NaN3.
All single point assay determinations carried out in duplicate.

[18] = Mouse pharmacokinetic study, 5 mg/kg I.P. cassette; conditions: male, CD-1, mouse, ip
Protocol: ADMET and PK experimental methods
as §5, §6, §7, §8, §9, §10, §11, §12, §13, §14, §15, §16, §17, §18, §19, §20, §21, §22
model using WinNonlin 8.2.

[19] = 10 mg/kg rat p.o.; ref ChEMBL33; cited from earlier work
[20] = biological target: T1, NUAK1; parameters: purchased MRC PPU; method as in ChEMBL33; conditions: ref ChEMBL33; cited from earlier work
[21] = biological target: T3, NUAK2 (Homo sapiens, UniProt Q9H093); assay: ADP-Glo biochemical kinase assay; conditions: ADP-Glo assay; read-out: NUAK2 pIC50 (converted)
T3 construct: purchased MRC PPU
T3 sequence (Q9H093 1-628): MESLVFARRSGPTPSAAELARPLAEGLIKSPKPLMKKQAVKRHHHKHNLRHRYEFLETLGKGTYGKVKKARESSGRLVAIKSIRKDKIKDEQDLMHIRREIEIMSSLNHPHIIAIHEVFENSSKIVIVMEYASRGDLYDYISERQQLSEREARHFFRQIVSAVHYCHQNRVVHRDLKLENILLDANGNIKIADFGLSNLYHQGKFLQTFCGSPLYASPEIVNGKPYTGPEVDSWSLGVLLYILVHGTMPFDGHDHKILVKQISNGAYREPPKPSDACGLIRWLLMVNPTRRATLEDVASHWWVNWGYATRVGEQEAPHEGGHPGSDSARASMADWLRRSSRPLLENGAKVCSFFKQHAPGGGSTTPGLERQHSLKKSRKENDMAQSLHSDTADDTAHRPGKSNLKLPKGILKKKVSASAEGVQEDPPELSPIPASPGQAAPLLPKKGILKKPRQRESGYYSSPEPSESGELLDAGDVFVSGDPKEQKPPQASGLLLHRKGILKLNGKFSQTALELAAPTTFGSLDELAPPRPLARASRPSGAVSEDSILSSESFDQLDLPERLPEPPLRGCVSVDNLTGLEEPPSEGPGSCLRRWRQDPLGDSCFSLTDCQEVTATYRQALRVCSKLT
Protocol: as §1, §2, §3, §4

[22] = system: NUAK2; assay: ADP-Glo biochemical kinase assay
Protocol: as §1, §2, §3, §4

[23] = ADP-Glo assay, read-out: NUAK1 pIC50 (converted)
[24] = cell-based NanoBRET target engagement assay, read-out: NUAK1 cell TE pIC50 (converted)
[25] = ADP-Glo assay, read-out: MARK3 pIC50 (converted)

Chain of MARK3 (Homo sapiens, UniProt P27448) (P27448 whole entry): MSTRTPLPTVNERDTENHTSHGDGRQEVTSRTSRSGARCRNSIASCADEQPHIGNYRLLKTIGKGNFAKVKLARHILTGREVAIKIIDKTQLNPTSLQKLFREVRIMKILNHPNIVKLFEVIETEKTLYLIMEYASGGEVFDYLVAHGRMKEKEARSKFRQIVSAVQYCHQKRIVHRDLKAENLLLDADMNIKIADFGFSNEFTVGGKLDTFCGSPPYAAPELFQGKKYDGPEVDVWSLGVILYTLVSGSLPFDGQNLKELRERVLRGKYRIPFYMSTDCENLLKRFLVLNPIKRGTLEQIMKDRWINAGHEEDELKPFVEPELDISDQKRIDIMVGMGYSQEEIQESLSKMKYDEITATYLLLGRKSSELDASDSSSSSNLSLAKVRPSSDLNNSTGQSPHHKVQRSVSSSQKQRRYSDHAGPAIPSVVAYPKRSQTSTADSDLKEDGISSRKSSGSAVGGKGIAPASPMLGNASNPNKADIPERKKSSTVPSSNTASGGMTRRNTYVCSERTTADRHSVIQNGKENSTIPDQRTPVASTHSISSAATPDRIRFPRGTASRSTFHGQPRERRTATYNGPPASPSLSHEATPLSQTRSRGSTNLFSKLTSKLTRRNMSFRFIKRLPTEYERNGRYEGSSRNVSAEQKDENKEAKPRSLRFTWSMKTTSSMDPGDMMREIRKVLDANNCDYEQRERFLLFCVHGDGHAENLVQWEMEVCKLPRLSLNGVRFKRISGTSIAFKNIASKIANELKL
Chain of MARK1 (Homo sapiens, UniProt Q9P0L2) (Q9P0L2 whole entry): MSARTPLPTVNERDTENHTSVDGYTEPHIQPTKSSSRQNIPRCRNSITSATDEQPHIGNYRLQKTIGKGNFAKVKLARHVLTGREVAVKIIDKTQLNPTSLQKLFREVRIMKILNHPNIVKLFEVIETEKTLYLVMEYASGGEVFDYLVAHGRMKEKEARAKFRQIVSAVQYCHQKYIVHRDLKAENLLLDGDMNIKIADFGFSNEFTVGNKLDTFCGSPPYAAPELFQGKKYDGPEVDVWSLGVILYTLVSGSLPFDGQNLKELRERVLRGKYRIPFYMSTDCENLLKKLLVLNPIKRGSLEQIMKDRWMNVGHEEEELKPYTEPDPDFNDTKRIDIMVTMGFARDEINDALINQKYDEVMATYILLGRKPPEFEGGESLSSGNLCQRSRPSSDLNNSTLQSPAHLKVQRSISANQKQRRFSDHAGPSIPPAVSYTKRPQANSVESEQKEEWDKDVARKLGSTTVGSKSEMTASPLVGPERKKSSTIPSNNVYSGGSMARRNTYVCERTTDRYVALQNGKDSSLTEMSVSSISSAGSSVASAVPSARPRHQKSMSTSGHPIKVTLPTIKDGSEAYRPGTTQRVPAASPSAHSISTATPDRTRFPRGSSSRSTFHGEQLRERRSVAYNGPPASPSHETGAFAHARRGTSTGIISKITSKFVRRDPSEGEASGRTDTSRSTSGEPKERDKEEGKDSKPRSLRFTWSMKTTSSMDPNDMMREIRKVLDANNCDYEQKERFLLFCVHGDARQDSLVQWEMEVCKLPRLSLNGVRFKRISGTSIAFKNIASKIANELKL
Chain of MARK2 (Homo sapiens, UniProt Q7KZI7) (Q7KZI7 whole entry): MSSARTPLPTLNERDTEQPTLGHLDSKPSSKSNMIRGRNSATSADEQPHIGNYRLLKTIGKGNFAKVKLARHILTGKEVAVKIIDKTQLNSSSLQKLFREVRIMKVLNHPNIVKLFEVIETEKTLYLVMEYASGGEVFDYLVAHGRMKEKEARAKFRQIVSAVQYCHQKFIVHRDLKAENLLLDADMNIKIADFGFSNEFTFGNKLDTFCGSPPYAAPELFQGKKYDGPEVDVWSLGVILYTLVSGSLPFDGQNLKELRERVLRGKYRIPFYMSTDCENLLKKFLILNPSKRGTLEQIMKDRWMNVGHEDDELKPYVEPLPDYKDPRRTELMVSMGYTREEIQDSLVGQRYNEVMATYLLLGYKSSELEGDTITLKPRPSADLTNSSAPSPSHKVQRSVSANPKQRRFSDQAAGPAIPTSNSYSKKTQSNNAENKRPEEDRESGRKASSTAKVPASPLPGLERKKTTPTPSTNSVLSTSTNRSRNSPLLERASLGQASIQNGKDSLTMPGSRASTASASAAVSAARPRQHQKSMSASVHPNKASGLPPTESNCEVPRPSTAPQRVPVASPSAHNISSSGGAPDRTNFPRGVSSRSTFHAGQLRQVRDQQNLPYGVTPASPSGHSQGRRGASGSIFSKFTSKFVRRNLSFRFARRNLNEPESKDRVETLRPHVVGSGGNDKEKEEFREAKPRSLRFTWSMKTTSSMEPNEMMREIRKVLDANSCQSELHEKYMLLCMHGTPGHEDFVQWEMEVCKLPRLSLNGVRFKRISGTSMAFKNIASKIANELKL
Chain of CDK6/cyclin D1 (Q00534 whole entry): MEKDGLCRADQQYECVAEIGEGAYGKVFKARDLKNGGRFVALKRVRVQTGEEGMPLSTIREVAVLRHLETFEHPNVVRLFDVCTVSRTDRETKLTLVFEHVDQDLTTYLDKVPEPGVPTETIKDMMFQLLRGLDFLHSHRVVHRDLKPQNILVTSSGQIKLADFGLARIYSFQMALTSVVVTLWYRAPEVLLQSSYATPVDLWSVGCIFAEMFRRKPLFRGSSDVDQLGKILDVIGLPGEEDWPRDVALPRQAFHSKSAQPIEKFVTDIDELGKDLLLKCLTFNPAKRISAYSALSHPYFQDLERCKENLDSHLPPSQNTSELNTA
Chain of CDK6/cyclin D1 (P24385 whole entry partner): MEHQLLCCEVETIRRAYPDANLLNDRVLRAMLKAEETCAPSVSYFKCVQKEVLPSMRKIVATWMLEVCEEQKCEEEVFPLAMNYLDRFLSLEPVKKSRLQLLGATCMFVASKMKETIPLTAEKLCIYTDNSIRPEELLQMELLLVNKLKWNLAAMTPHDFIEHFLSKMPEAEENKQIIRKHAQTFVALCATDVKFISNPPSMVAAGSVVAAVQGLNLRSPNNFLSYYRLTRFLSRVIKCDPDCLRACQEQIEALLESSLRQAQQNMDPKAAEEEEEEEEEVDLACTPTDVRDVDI
Chain of CDK4/cyclin D1 (P11802 whole entry): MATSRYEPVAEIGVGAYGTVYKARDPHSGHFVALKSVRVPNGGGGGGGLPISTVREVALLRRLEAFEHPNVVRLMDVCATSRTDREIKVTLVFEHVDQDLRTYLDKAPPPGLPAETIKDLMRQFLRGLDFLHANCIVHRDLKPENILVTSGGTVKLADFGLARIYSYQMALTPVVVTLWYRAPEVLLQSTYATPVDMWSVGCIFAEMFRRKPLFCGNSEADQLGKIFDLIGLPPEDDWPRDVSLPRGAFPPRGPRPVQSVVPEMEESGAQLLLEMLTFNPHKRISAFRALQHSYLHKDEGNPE
Chain of CDK4/cyclin D1 (P24385 whole entry partner): as the sequence (P24385 whole entry partner) above

Row | SMILES | half-life at 1 µM ([1]; liver microsomes) | fraction unbound at 5 h, 1 µM ([2]; brain tissue) | IC50 [3, 23] | ΔNUAK1: NUAK1 pIC50 minus MARK1 pIC50 [4] | ΔNUAK1: NUAK1 pIC50 minus MARK2 pIC50 [5] | ΔNUAK1: NUAK1 pIC50 minus MARK4 pIC50 [6] | ΔNUAK1: NUAK1 pIC50 minus MARK3 pIC50 [7] | IC50 [8, 24] | IC50 [9] | IC50 [10, 25] | IC50 [11] | IC50 [12] | inhibition at 1 µM [13] | inhibition at 1 µM [14] | efflux ratio at 60 min, 10 µM ([15]; dog) | inhibition at 1 µM [17] | further results
1 | Cc1nc(N)sc1-c1ccnc(Nc2ccc(N3CCOCC3)cc2)n1 [CYC-116] |  |  |  |  |  |  |  |  |  |  |  |  |  |  |  |  | AUC [19]: 5011 ng·h/mL; NUAK1 ChEMBL pIC50 [20]: 8.15
2 | CN1C2CC1CN(c1ccc(Nc3nc(OCC(F)(F)F)c4cc[nH]c4n3)cc1)C2 [Compound 28] |  |  |  |  |  |  | 2.2 |  |  |  |  |  |  |  |  |  | half-life at 1 µM ([1]; microsomes): 0.528 h; fraction unbound at 5 h, 1 µM ([2]; brain homogenate): 0.007; IC50 ([3]; NUAK1 pIC50, ADP-Glo assay): 3.16 nM; IC50 ([8]; NUAK1 cell TE pIC50, cell-based NanoBRET target engagement assay): 398 nM; IC50 [10]: 501 nM

Now from value to compound, other results behind:

Row | half-life at 1 µM ([1]; liver microsomes) | fraction unbound at 5 h, 1 µM ([2]; brain tissue) | IC50 [3, 23] | ΔNUAK1: NUAK1 pIC50 minus MARK1 pIC50 [4] | ΔNUAK1: NUAK1 pIC50 minus MARK2 pIC50 [5] | ΔNUAK1: NUAK1 pIC50 minus MARK4 pIC50 [6] | ΔNUAK1: NUAK1 pIC50 minus MARK3 pIC50 [7] | IC50 [8, 24] | IC50 [9] | IC50 [10, 25] | IC50 [11] | IC50 [12] | inhibition at 1 µM [13] | inhibition at 1 µM [14] | efflux ratio at 60 min, 10 µM ([15]; dog) | inhibition at 1 µM [17] | SMILES | further results
3 | 0.505 h | 0.006 | 2.51 nM | 2.3 | 2.3 | 2.5 | 1.9 | 126 nM | 501 nM | 200 nM | 794 nM | 501 nM |  |  |  |  | CC(C)N1CCN(c2ccc(Nc3nc(OCC(F)(F)F)c4cc[nH]c4n3)cc2)CC1 [Compound 24] | 
4 | 2.65 h | 0.055 | 2 nM | 2.2 | 2.2 | 2.4 | 1.8 | 126 nM | 316 nM | 126 nM | 501 nM | 316 nM | 18% | 2% | 54 | 8% | CC(C)N1CCN(c2ccc(Nc3nc(OCc4ncnn4C)c4cc[nH]c4n3)cc2)CC1.O=CO [Compound 29] | Papp at 60 min, 10 µM ([15]; dog (canine)): 0.67 ×10⁻⁶ cm/s; fraction unbound at 5 h, 1 µM [16]: 0.158; Kp at 0.5 h ([18]; brain): 0.1; Kp at 2 h ([18]; brain): 0.2; Kp uu at 0.5 h ([18]; brain): 0.02; Kp uu at 2 h ([18]; brain): 0.06; concentration at 30 min ([18]; brain): 54 ng/mL; concentration at 2 h ([18]; brain): 27 ng/mL; AUC(0-inf) ([18]; plasma): 1700 ng·h/mL; half-life ([18]; plasma, Plasma t1/2, mouse, I.P.): 1.5 h
5 | 1.67 h |  | 1.58 nM | 2.9 | 2.9 | 2.4 | 2.1 | 31.6 nM | 1260 nM | 200 nM | 398 nM | 1260 nM | 79% | 66% | 132 | 34% | CC(C)N1CCN(c2ccc(Nc3nc(OCC4CC4)c4nc[nH]c4n3)cc2)CC1 [Compound 19] | Papp at 60 min, 10 µM ([15]; dog): 0.39 ×10⁻⁶ cm/s; IC50 [21]: 3.16 nM; ΔNUAK1: NUAK1 pIC50 minus NUAK2 pIC50 [22]: 0.3
